The test system of one series is mouse CT-26 cells. The experiment in a line: Antitumor activity in CT26 subcutaneous tumor model in Balb/c mice. The class given is in vivo. The following applies: day 13 vs vehicle; 30 mg/kg qdx9 PO + anti-PD1 antibody 200 μg/mouse q2dx4 IP. Here is the method:
Mice used were ˜ 6-8 week-old female Balb/c mice subcutaneously inoculated with 2×10^6 mouse CT-26 cells. […] The mice were divided into six treatment groups as follows: vehicle (qdx9) PO+IP, Compound 1 (10 mg/kg, qdx9)+an exemplary anti-mouse PD1 (CD279) antibody (BioXCell) (200 μg/mouse, q2dx4); Compound 1 (30 mg/kg, qdx9)+anti-PD1 antibody (200 μg/mouse, q2dx4), Compound 1 (100 mg/kg)+anti-PD1 antibody (200 μg/mouse, q2dx4), anti-PD1 antibody (200 μg/mouse, q2dx4), or preladenant (30 mg/kg, qdx9)+anti-PD1 antibody (200 μg/mouse, q2dx4). Compound 1 and preladenant were administered orally. The anti-PD1 antibody was administered IP. Body weight was measured daily. Tumor growth of the CT26 cells was monitored three times per week by measuring the tumor volume size using a caliper with the results shown in FIG. 5.

Series [1] is described as follows: Brain-to-plasma ratio (B/P) after administration. Particulars: Sprague-Dawley, rat, oral, 2.5 mg/kg; Table 6; brain-to-plasma ratio at 1 h. The class given is in vivo, Sprague-Dawley rats. Summed up: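 Plasma pharmacokinetic parameters determined after oral (PO) administration; brain-to-plasma concentration ratio (B/P) used as the brain penetration measure.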
The target in a further series is T1, A2A receptor (Homo sapiens, UniProt P29274).
T1 construct: purchased
The experiment in a line: Radioligand receptor binding assay, A2A receptor. Particulars: cell membranes overexpressing A2A receptor, read-out: Potency Ki A2A. In outline: (§1)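 Membranes from cell lines overexpressing human A2A, A1 or A3 receptors were incubated 60 min at room temperature with the receptor-appropriate [3H] tracer. After filtration and washing in 50 mM Tris HCl pH 7.5, bound label was counted by scintillation. IC50 came from nonlinear regression and Ki from the Cheng-Prusoff equation.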

For another series, the target named is T2, A3 receptor (Homo sapiens, UniProt P0DMS8).
T2 construct: purchased
T2 sequence (P0DMS8 1-318): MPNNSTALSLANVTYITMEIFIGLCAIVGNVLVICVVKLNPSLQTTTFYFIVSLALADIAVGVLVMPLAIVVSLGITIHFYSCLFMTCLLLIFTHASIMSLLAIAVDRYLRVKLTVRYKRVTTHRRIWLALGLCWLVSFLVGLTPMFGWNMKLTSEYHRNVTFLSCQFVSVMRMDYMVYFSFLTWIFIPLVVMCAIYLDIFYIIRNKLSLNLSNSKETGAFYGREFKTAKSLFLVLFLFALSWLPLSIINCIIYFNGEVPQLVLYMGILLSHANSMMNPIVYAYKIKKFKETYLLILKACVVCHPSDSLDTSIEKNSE
The experiment in a line: Radioligand receptor binding assay, A3 receptor. The following applies: cell membranes overexpressing A3 receptor, read-out: Potency Ki A3. How it is done: Using conventional receptor binding assay techniques, Compounds 1-24 were assayed to determine binding activity at the A2A, A1, and A3 receptors with the results shown in Table 7.
Receptor binding affinity of Compounds 1-24 was measured using radioligand binding assays using commercially obtained cell membranes prepared from cell lines overexpressing the A2A, A1, or A3 receptors. Briefly, cell membrane preparations from cells expressing the specific receptor were mixed with the appropriate [^3H]-labeled tracer for the specific receptor and the test compound or a known inhibitor of receptor-ligand binding. Following 60 min incubation at room temperature to allow receptor-ligand complex formation, the complexes were collected by filtration, washed with 50 mM Tris HCl (pH 7.5) to remove radioligand that was not receptor-bound, and the remaining radioactivity determined by liquid scintillation counting. Specific radioligand binding was calculated for each test compound concentration and IC50 values were determined by non-linear, regression analysis. Inhibition constants (Ki) were calculated using the equation of Cheng and Prusoff using the observed IC50 of the tested compound, the concentration of radioligand employed in the assay and the experimentally determined values for the Kd of the ligand.

Series [2] can be described thus: Plasma pharmacokinetic parameters following intravenous (IV) or oral (PO) administration in rats. The class given is in vivo, Sprague-Dawley rats. Particulars: male, Sprague-Dawley, rat, plasma, Table 6; for AUC / bioavailability: 2.5 mg/kg, oral (PO) administration essentially as described in Example 28; for clearance: intravenous, 0.5 mg/kg, essentially as described in Example 28; for bioavailability: po. Summed up: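 Fasted male Sprague-Dawley rats (230-250 g, n=2/group), dosed 0.5 mg/kg IV (jugular) or 2.5 mg/kg PO gavage in water. Plasma sampled 2–1440 min, analyzed by LC-MS/MS; non-compartmental analysis with nominal doses/times gave AUC, Cmax, Tmax, CL, Vss, MRTlast, F.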

The target of a further series is T3, A1 receptor (Homo sapiens, UniProt P30542).
T3 construct: purchased
T3 sequence (P30542 1-326): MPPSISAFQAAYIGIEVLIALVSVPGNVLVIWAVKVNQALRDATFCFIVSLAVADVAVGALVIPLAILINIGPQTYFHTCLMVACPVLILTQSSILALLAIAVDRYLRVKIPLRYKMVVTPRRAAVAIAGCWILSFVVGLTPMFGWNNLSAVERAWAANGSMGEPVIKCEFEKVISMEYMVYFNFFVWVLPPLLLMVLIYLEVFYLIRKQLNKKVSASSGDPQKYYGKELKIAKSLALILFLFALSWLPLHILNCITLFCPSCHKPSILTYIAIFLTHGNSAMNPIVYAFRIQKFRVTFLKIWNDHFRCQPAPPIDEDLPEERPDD
The experiment in a line: Radioligand receptor binding assay, A1 receptor. Particulars: cell membranes overexpressing A1 receptor, read-out: Potency Ki A1. In outline:
as §1

Broadly, the Kp is the ratio of the level in a tissue or fluid to that in plasma or blood. A word on the Ki: it is the dissociation constant of the complex between target and ligand, obtained from inhibition or displacement. A word on the AUC: it is concentration integrated over time. Read a low AUC as less exposure. In general, bioavailability refers to dose-corrected exposure relative to a reference, in per cent. The low end stands for poor availability, the high end for good availability.

T1 sequence (P29274 whole entry): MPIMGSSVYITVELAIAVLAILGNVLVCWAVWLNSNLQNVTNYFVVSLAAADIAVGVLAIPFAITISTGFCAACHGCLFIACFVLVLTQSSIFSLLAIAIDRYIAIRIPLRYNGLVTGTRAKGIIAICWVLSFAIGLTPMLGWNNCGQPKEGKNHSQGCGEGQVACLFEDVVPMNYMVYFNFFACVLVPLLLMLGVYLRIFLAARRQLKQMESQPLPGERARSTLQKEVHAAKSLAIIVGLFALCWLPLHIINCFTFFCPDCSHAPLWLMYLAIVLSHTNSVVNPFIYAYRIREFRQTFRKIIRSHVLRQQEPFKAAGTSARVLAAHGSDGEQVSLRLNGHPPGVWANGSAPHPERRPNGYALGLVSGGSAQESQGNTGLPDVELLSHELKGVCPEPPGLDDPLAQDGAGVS

Turning to Preladenant [reference compound], the “% TGI” value in the series on mouse CT-26 cells is reported as 56^3%.
`[2H]C([2H])([2H])OC([2H])([2H])C([2H])([2H])Oc1ccc(N2CCN(C([2H])([2H])C([2H])([2H])N(c3cc4nc(-c5ncco5)nn4c(N)n3)C([2H])([2H])[2H])CC2)cc1` [Compound 16, N^7-(^2H3)methyl-N^7-[2-{4-[4-({2-[(^2H3)methyloxy](^2H4)ethyl}oxy)phenyl]piperazin-1-yl}(^2H4)ethyl]-2-(1,3-oxazol-2-yl)[1,2,4]triazolo[1,5-c]pyrimidine-5,7-diamine]: in series [1], the Kp at 1 h stood at 0.06. Moreover, at A2A receptor, the Ki came out at 0.004 µM. In addition, the Ki at A3 receptor is over 10 µM. In series [2], this molecule registered an exposure (AUC) of 1200 ng·h/mL, a clearance of 20 mL/min/kg and a bioavailability of 58%. Also, the Ki on A1 receptor is over 100 µM.
`COCCOc1ccc(N2CCN(CCN(C)c3cc4nc(-c5ncco5)nn4c(N)n3)CC2)c(OC)c1` [Compound 17, N^7-(2-{4-[2-methoxy-4-(2-methoxyethoxy)phenyl]piperazin-1-yl}ethyl)-N^7-methyl-2-(1,3-oxazol-2-yl)[1,2,4]triazolo[1,5-c]pyrimidine-5,7-diamine]: the Kp at 1 h in series [1] was 0.03. In addition, the Ki on A2A receptor was determined as 0.02 µM. Also, in series [2], the exposure (AUC) came out at 406 ng·h/mL, the clearance was found to be 44 mL/min/kg and the bioavailability was determined as 43%. For the same molecule, on A1 receptor, the Ki came out at 11.8 µM.
On to `COCCOc1ccc(N2CCN(CCN(C)c3nc(N)n4nc(-c5ncco5)nc4n3)CC2)cc1` [Compound 2, N^5-(2-{4-[4-(2-methoxyethoxy)phenyl]piperazin-1-yl}ethyl)-N^5-methyl-2-(1,3-oxazol-2-yl)[1,2,4]triazolo[1,5-a][1,3,5]triazine-5,7-diamine], for which the Kp at 1 h in series [1] is 0.04. For the same molecule, the Ki on A2A receptor came to 0.007 µM. Also, in series [2], the exposure (AUC) worked out at 320 ng·h/mL, the clearance was 54 mL/min/kg and the bioavailability turned out to be 43%. For the same molecule, the Ki on A1 receptor stood at 13 µM.

The values are drawn from patent publication US12325708B2, “Adenosine 2 receptor antagonists” (Nektar Therapeutics, priority 2019, dated 2025).
